Measured values from ChEMBL document CHEMBL1139628, “Beta-lactam compounds as apparently uncompetitive inhibitors of HIV-1 protease” (Bioorg Med Chem Lett, 2005).

Legend:
[1] = target: Human immunodeficiency virus type 1 protease (Human immunodeficiency virus 1) (UniProt Q72874); assay: Percent inhibition against human immunodeficiency virus 1 protease; set-up: concentration or dose not given beside the values; conditions: concentration not given here
[2] = target: Human immunodeficiency virus type 1 protease (Human immunodeficiency virus 1) (UniProt Q72874); assay: Catalytic constant against human immunodeficiency virus typeI protease
[3] = target: Human immunodeficiency virus type 1 protease (Human immunodeficiency virus 1) (UniProt Q72874); assay: Inhibitory activity against human immunodeficiency virus type I protease
[4] = target: Human immunodeficiency virus type 1 protease (Human immunodeficiency virus 1, UniProt Q72874); assay: Inhibition constant against human immunodeficiency virus 1 protease
[5] = target: Human immunodeficiency virus type 1 protease (Human immunodeficiency virus 1) (UniProt Q72874); assay: Ratio of Michaelis-Menten constant and catalytic constant against human immunodeficiency virus type I protease
[6] = target: Human immunodeficiency virus type 1 protease (Human immunodeficiency virus 1) (UniProt Q72874); assay: Inhibitory activity against human immunodeficiency virus typeI protease

| Compound | inhibition [1] | other results |
| --- | --- | --- |
| CC1CN(C(C(=O)NCc2ccccc2)c2ccccc2)C1=O (configuration not stated) | 86% | – |
| CCCC(C(=O)NCC1N=Cc2cncnc21)N1C(=O)CC1C(=O)OCc1ccccc1 (configuration not stated) | 83% | – |
| O=C(OCc1ccccc1)C1CC(=O)N1C(C(=O)NCC1N=Cc2cncnc21)c1ccccc1 (configuration not stated) | 97% | K cat [2]: 0.126 s⁻¹; inhibition [3]: 60 µM; Ki [4]: 60.3 µM; Ratio [5]: 0.151 mM⁻¹ s⁻¹ |
| CC1CN(C(Cc2ccccc2)C(=O)NCC2N=Cc3cncnc32)C1=O (configuration not stated) | 71% | – |
| COC(=O)C(Cc1ccccc1)NC(=O)C1CC(=O)N1C(Cc1ccccc1)C(=O)NCC(C)C (configuration not stated) | 68% | – |
| CC1CC(=O)N1C(C(=O)NCC1CCCCC1)c1ccccc1 (configuration not stated) | 83% | – |
| CC(C)CNC(=O)C(Cc1ccccc1)N1CCC1=O (configuration not stated) | 65% | – |
| CCC[C@@H](C(=O)NCC(=O)OC)N1C(=O)C[C@H]1c1ccccc1 | 68% | – |
| COC(=O)C(Cc1ccccc1)NC(=O)C1CC(=O)N1C(C(=O)NCC(C)C)c1ccccc1 (configuration not stated) | 71% | – |
| COC(=O)CNC(=O)[C@H](Cc1ccccc1)N1C(=O)C[C@H]1C(=O)N[C@@H](Cc1ccccc1)C(=O)OC | 69% | – |
| CC1CN(C(Cc2ccccc2)C(=O)NCC2CCCCC2)C1=O (configuration not stated) | 76% | – |
| CC1C(=O)N(C(C(=O)NCC2CCCCC2)c2ccccc2)C1C(=O)OCc1ccccc1 (configuration not stated) | 92% | – |
| COC(=O)CNC(=O)[C@H](c1ccccc1)N1CCC1=O | 70% | – |
| CCCCNC(=O)C(c1ccccc1)N1C(=O)CC1C(=O)NC(Cc1ccccc1)C(=O)OC (configuration not stated) | 86% | – |
| CC1CC(=O)N1C(Cc1ccccc1)C(=O)NCC1C=Nc2cncnc21 (configuration not stated) | 62% | – |
| CCCCNC(=O)C(Cc1ccccc1)N1CC(C)C1=O (configuration not stated) | 78% | – |
| O=C(NCC1CCCCC1)C(c1ccccc1)N1CCC1=O (configuration not stated) | 79% | – |
| CCCCNC(=O)C(c1ccccc1)N1C(=O)CC1c1ccccc1 (configuration not stated) | 63% | – |
| COC(=O)C(Cc1ccccc1)NC(=O)C1C(O)C(=O)N1C(C(=O)NCC1N=Cc2cncnc21)c1ccccc1 (configuration not stated) | 97% | K cat [2]: 0.1 s⁻¹; inhibition [3]: 80 µM; Ki [4]: 63.2 µM; Ratio [5]: 0.155 mM⁻¹ s⁻¹ |
| O=C(NCC1CCCCC1)C(Cc1ccccc1)N1CC(O)C1=O (configuration not stated) | 66% | – |

| Compound | inhibition [1] | other results |
| --- | --- | --- |
| CCC[C@@H](C(=O)NCC(=O)OC)N1C(=O)CC1C(=O)N[C@@H](Cc1ccccc1)C(=O)OC (some centres not stated) | 103% | – |
| COC(=O)CNC(=O)[C@H](c1ccccc1)N1C[C@H](C)C1=O | 63% | – |
| O=C(NCc1ccccc1)C(c1ccccc1)N1C(=O)CC1c1ccccc1 (configuration not stated) | 75% | – |
| CC1CC(=O)N1C(Cc1ccccc1)C(=O)NCC1CCCCC1 (configuration not stated) | 71% | – |
| CC(C)CNC(=O)C(Cc1ccccc1)N1CC(C)C1=O (configuration not stated) | 72% | – |
| COC(=O)CNC(=O)C(Cc1ccccc1)N1C(=O)CC1C(=O)OCc1ccccc1 (configuration not stated) | 67% | – |
| O=C(OCc1ccccc1)C1CC(=O)N1C(C(=O)NCc1ccccc1)c1ccccc1 (configuration not stated) | 119% | – |
| O=C(NCC1N=Cc2cncnc21)C(c1ccccc1)N1C(=O)CC1c1ccccc1 (configuration not stated) | 78% | – |
| CC1CN(C(C(=O)NCC2N=Cc3cncnc32)c2ccccc2)C1=O (configuration not stated) | 76% | – |
| CCCCNC(=O)C(c1ccccc1)N1C(=O)CC1C(=O)OCc1ccccc1 (configuration not stated) | 71% | – |
| CCCCNC(=O)C(CCC)N1C(=O)CC1c1ccccc1 (configuration not stated) | 93% | – |
| O=C(NCc1ccccc1)C(Cc1ccccc1)N1CCC1=O (configuration not stated) | 65% | – |
| CCCC(C(=O)NCC1N=Cc2cncnc21)N1CCC1=O (configuration not stated) | 74% | – |
| CCCCNC(=O)C(Cc1ccccc1)N1C(=O)CC1c1ccccc1 (configuration not stated) | 74% | – |
| COC(=O)CNC(=O)C(c1ccccc1)N1C(=O)CC1C(=O)OCc1ccccc1 (configuration not stated) | 97% | K cat [2]: 0.144 s⁻¹; inhibition [6]: 1000 µM; Ki [4]: 1140 µM; Ratio [5]: 0.157 mM⁻¹ s⁻¹ |
| O=C(NCC1N=Cc2cncnc21)C(c1ccccc1)N1CCC1=O (configuration not stated) | 68% | – |
| CC1CC(=O)N1C(C(=O)NCc1ccccc1)c1ccccc1 (configuration not stated) | 67% | – |
| O=C(NCC1N=Cc2cncnc21)C(Cc1ccccc1)N1C(=O)CC1C(=O)OCc1ccccc1 (configuration not stated) | 66% | – |
| CCCC(C(=O)NCC1CCCCC1)N1C(=O)CC1C(=O)NC(Cc1ccccc1)C(=O)OC (configuration not stated) | 71% | – |
| CCCC(C(=O)NCC(=O)OC)N1C(=O)C(C)C1C(=O)OCc1ccccc1 (configuration not stated) | 87% | – |
